Patent publication US11926628B2 (Gilead Sciences, Inc., priority 2021, dated 2024)

Assays:
[1] = tested on: Jurkat NFκB-luciferase cells; experiment: Jurkat NFκB-Luciferase Assay; assay type: cell-based; conditions: Homo sapiens; Jurkat NFκB-luciferase cells activated with anti-CD3 antibody (OKT3), 2.5 hrs at 37° C.; geometric mean; read-out: DGK NFKb Luciferase EC50
Summary of the method: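 Jurkat NFκB-luciferase reporter cells stimulated on plate-bound anti-CD3 (5 ug/ml coating) with compound, 2.5 hrs at 37° C then 30 min at 25° C; luminescence read with One-Glo Ex. Normalized to DMSO (basal) and 1 micromolar compound (maximum) controls; EC50 from four-parameter fit, geometric mean across experiments.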

human DGKα = human DGKα (Homo sapiens (Human), UniProt P23743); experiment: DGKα Biochemical Activity Assay (ADP-Glo); conditions: recombinant DGKα 1 nM, 100 μM ATP, 18:1 DAG/POPS/octylglucoside micelles, 1 hour at 25° C.; geometric mean; read-out: HTBS DGKa 1X ATP KM IC50
Summary of the method: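 Recombinant DGKα (1 nM final) was preincubated with compound for 15 min, then reacted for 1 h at 25 °C with 100 μM ATP and octylglucoside micelles of 0.85 mM 18:1 DAG and 6.75 mM POPS in pH 7.2 MOPS with 5 mM MgCl2. ADP formed was read by ADP-Glo luminescence. IC50 came from four-parameter fits normalized to DMSO and 50 μM CU3, and values were geometric means.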

human DGKα, sequence (P23743 whole entry): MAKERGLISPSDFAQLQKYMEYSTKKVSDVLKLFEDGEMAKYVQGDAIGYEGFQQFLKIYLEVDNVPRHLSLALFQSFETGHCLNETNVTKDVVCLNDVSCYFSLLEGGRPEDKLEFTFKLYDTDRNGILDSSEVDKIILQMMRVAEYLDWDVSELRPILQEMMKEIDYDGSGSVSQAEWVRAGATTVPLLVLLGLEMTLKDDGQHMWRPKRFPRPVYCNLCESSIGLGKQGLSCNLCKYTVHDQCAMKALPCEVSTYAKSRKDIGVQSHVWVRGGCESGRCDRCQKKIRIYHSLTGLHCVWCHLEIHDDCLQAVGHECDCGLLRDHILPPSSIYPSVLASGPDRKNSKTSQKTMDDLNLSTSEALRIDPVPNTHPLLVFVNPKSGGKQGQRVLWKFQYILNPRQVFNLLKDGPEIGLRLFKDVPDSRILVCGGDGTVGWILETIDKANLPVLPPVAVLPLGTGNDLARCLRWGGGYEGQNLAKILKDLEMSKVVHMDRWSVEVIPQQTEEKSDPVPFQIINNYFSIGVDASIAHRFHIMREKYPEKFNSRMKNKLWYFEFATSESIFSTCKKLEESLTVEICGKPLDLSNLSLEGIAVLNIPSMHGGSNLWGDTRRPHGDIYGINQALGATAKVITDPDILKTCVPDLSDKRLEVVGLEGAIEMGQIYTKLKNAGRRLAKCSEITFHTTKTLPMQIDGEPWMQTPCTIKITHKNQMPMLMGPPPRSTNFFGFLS

SMILES	EC50 [1] [nM]	IC50 (human DGKα) [nM]
CN(c1cccc(-c2ccc(S(F)(F)(F)(F)F)cc2)c1)c1nc2nncn2c2nc(N)ccc12 [Example 117, N5-methyl-N5-(4′-(pentafluoro-16-sulfaneyl)-[1,1′-biphenyl]-3-yl)pyrido[3,2-e][1,2,4]triazolo[4,3-a]pyrimidine-2,5-diamine]	4.88	30.4
Fc1cncc2c1c(N1CCCc3c(C#CC4(C(F)(F)F)CC4)cccc31)nc1nncn12 [Example 87, 10-fluoro-8-[5-[2-[1-(trifluoromethyl)cyclopropyl]ethynyl]-3,4-dihydro-2H-quinolin-1-yl]-2,4,5,7,12-pentazatricyclo[7.4.0.02,6]trideca-1(13),3,5,7,9,11-hexaene]	0.839	8.6
Cc1nnc2nc(N3CCOCc4c(C#CC(C)(C)C(F)(F)F)cccc43)c3c(F)cncc3n12 [Example 76, 1-(6-fluoro-1-methylpyrido[4,3-e][1,2,4]triazolo[4,3-a]pyrimidin-5-yl)-6-(4,4,4-trifluoro-3,3-dimethylbut-1-yn-1-yl)-1,2,3,5-tetrahydrobenzo[e][1,4]oxazepine]	1.41	6.09
CC(C)(O)C#Cc1cc(F)cc(N(CC(F)F)c2nc3nncn3c3cncc(F)c23)c1 [Example 42, 4-(3-((2,2-difluoroethyl)(6-fluoropyrido[4,3-e][1,2,4]triazolo[4,3-a]pyrimidin-5-yl)amino)-5-fluorophenyl)-2-methylbut-3-yn-2-ol]	43	35.4
Cc1nnc2nc(N(CC(F)F)c3cc(F)cc(C#CC(C)(C)O)c3)c3cc(F)cnc3n12 [Example 99, 4-(3-((2,2-difluoroethyl)(3-fluoro-9-methylpyrido[3,2-e][1,2,4]triazolo[4,3-a]pyrimidin-5-yl)amino)-5-fluorophenyl)-2-methylbut-3-yn-2-ol]	53.1	38.9
CN(c1cccc(-c2ccc(C3CC3)nc2)c1)c1nc2nncn2c2cnccc12 [Example 62, N-[3-(6-cyclopropyl-3-pyridyl)phenyl]-N-methyl-2,4,5,7,12-pentazatricyclo[7.4.0.02,6]trideca-1(13),3,5,7,9,11-hexaen-8-amine]	27.7	159
CN(c1cc(F)cc(C#CC2(C(F)(F)F)CC2)c1)c1nc2nncn2c2ncc(F)cc12 [Example 156, 3-fluoro-N-(3-fluoro-5-((1-(trifluoromethyl)cyclopropyl)ethynyl)phenyl)-N-methylpyrido[3,2-e][1,2,4]triazolo[4,3-a]pyrimidin-5-amine]	2.69	10.7
Cc1nnc2nc(N3CCCc4c(C#CC5(CF)CC5)cccc43)c3ncccc3n12 [Example 26, 5-(5-((1-(fluoromethyl)cyclopropyl)ethynyl)-3,4-dihydroquinolin-1(2H)-yl)-1-methylpyrido[2,3-e][1,2,4]triazolo[4,3-a]pyrimidine]	8.37	21.2
Cc1nnc2nc(N(CC(F)F)c3cc(F)cc(C#CC4(C)CC4)c3)c3cc(F)cnc3n12 [Example 104, N-(2,2-difluoroethyl)-3-fluoro-N-(3-fluoro-5-((1-methylcyclopropyl)ethynyl)phenyl)-9-methylpyrido[3,2-e][1,2,4]triazolo[4,3-a]pyrimidin-5-amine]	3.53	14.5
Cc1nnc2nc(N(CC(F)F)c3cc(F)cc(C#CC4(C)CC4)c3)c3c(F)cncc3n12 [Example 49, N-(2,2-difluoroethyl)-6-fluoro-N-(3-fluoro-5-((1-methylcyclopropyl)ethynyl)phenyl)-1-methylpyrido[4,3-e][1,2,4]triazolo[4,3-a]pyrimidin-5-amine]	6.04	12.6
CN(c1cc(F)cc(C#CC(C)(C)O)c1)c1nc2nncn2c2cncc(F)c12 [Example 92, 4-[3-fluoro-5-[(10-fluoro-2,4,5,7,12-pentazatricyclo[7.4.0.02,6]trideca-1(13),3,5,7,9,11-hexaen-8-yl)-methyl-amino]phenyl]-2-methyl-but-3-yn-2-ol]	32.1	17.4
Cc1nnc2nc(N(CC(F)F)c3cc(F)cc(C#CC4(C(F)F)CC4)c3)c3cc(F)cnc3n12 [Example 105, N-(2,2-difluoroethyl)-N-(3-((1-(difluoromethyl)cyclopropyl)ethynyl)-5-fluorophenyl)-3-fluoro-9-methylpyrido[3,2-e][1,2,4]triazolo[4,3-a]pyrimidin-5-amine]	5.57	13.3
CN(c1cc(F)cc(-c2cnc(C3CC3)cn2)c1)c1nc2nnnn2c2cc(Cl)ccc12 [Example 4, 8-chloro-N-(3-(5-cyclopropylpyrazin-2-yl)-5-fluorophenyl)-N-methyltetrazolo[1,5-a]quinazolin-5-amine]	0.669	27.6
CN(c1cc(F)cc(C#CC(C)(C)O)c1)c1nc2nnnn2c2ccc(F)cc12 [Example 13, 4-(3-fluoro-5-((7-fluorotetrazolo[1,5-a]quinazolin-5-yl)(methyl)amino)phenyl)-2-methylbut-3-yn-2-ol]	7.54	12.8
Cc1nnc2nc(N(CC(F)F)c3cc(F)cc(C#CC(C)(C)C(F)(F)F)c3)c3cc(F)cnc3n12 [Example 103, N-(2,2-difluoroethyl)-3-fluoro-N-(3-fluoro-5-(4,4,4-trifluoro-3,3-dimethylbut-1-yn-1-yl)phenyl)-9-methylpyrido[3,2-e][1,2,4]triazolo[4,3-a]pyrimidin-5-amine]	1.64	9.34
Fc1cc(C#CC2(C(F)(F)F)CC2)cc(N(CC(F)F)c2nc3nncn3c3cncc(F)c23)c1 [Example 47, N-(2,2-difluoroethyl)-6-fluoro-N-(3-fluoro-5-((1-(trifluoromethyl)cyclopropyl)ethynyl)phenyl)pyrido[4,3-e][1,2,4]triazolo[4,3-a]pyrimidin-5-amine]	4.27	50.7
COc1ccc2c(N(C)c3cccc(-c4ccc(C(F)F)cc4)c3)nc3nnc(C)n3c2n1 [Example 133, N-(4′-(difluoromethyl)-[1,1′-biphenyl]-3-yl)-2-methoxy-N,9-dimethylpyrido[3,2-e][1,2,4]triazolo[4,3-a]pyrimidin-5-amine]	1.98	52.8
CCN(c1cc(F)cc(C#CC2(C)CC2)c1)c1nc2nncn2c2cncc(F)c12 [Example 89, N-ethyl-10-fluoro-N-[3-fluoro-5-[2-(1-methylcyclopropyl)ethynyl]phenyl]-2,4,5,7,12-pentazatricyclo[7.4.0.02,6]trideca-1(13),3,5,7,9,11-hexaen-8-amine]	0.655	6.18
Cc1nnc2nc(N3CCCc4c3ccnc4C#CC3(C(C)(F)F)CC3)c3c(F)cncc3n12 [Example 29, 5-(5-((1-(1,1-difluoroethyl)cyclopropyl)ethynyl)-3,4-dihydro-1,6-naphthyridin-1(2H)-yl)-6-fluoro-1-methylpyrido[4,3-e][1,2,4]triazolo[4,3-a]pyrimidine]	7.24	37.7
Cc1nnc2nc(N3CCOCc4c(C#CC(C)(C)C#N)cccc43)c3ccc(C(F)(F)F)nc3n12 [Example 138, 2,2-dimethyl-4-(1-(9-methyl-2 (trifluoromethyl)pyrido[3,2-e][1,2,4]triazolo[4,3-a]pyrimidin-5-yl)-1,2,3,5-tetrahydrobenzo[e][1,4]oxazepin-6-yl)but-3-ynenitrile]	4.35	6.56
Cc1nnc2nc(N3CCCc4c(C#CC5(C(F)(F)F)CC5)cncc43)c3c(F)cncc3n12 [Example 39, 6-fluoro-1-methyl-5-(5-((1-(trifluoromethyl)cyclopropyl)ethynyl)-3,4-dihydro-1,7-naphthyridin-1(2H)-yl)pyrido[4,3-e][1,2,4]triazolo[4,3-a]pyrimidine]	4.82	26.2
Cc1nnc2nc(N(CC(F)F)c3cc(F)cc(C#CC(C)(C)O)c3)c3c(F)cncc3n12 [Example 48, 4-(3-((2,2-difluoroethyl)(6-fluoro-1-methylpyrido[4,3-e][1,2,4]triazolo[4,3-a]pyrimidin-5-yl)amino)-5-fluorophenyl)-2-methylbut-3-yn-2-ol]	97.2	48.9
Cc1nnc2nc(N3CCCc4c3ccnc4C#CC3(C(F)(F)F)CC3)c3c(F)cncc3n12 [Example 33, 6-fluoro-1-methyl-5-(5-((1-(trifluoromethyl)cyclopropyl)ethynyl)-3,4-dihydro-1,6-naphthyridin-1(2H)-yl)pyrido[4,3-e][1,2,4]triazolo[4,3-a]pyrimidine]	5.13	22.4
FCC1(C#Cc2cccc3c2CCCN3c2nc3nncn3c3cccnc23)CC1 [Example 27, 5-(5-((1-(fluoromethyl)cyclopropyl)ethynyl)-3,4-dihydroquinolin-1(2H)-yl)pyrido[2,3-e][1,2,4]triazolo[4,3-a]pyrimidine]	6.11	6.83
COc1ccc2c(N(C)c3cccc(-c4ccc(C5CC5)cc4)c3)nc3nncn3c2n1 [Example 129, N-(4′-cyclopropyl-[1,1′-biphenyl]-3-yl)-2-methoxy-N-methylpyrido[3,2-e][1,2,4]triazolo[4,3-a]pyrimidin-5-amine]	0.754	28.9
Cc1nnc2nc(N(CC(F)F)c3cc(F)cc(C#CC(C)(C)C(F)(F)F)c3)c3c(F)cncc3n12 [Example 50, N-(2,2-difluoroethyl)-6-fluoro-N-(3-fluoro-5-(4,4,4-trifluoro-3,3-dimethylbut-1-yn-1-yl)phenyl)-1-methylpyrido[4,3-e][1,2,4]triazolo[4,3-a]pyrimidin-5-amine]	4.91	13
